{"source": "patent US10376486B2", "about": "“Compositions and methods for reactivating latent viral infections” (priority 2014, dated 2019)", "format_in_all_cases": "cell-based", "key": {"[1]": {"test_system": "latent HIV in J-Lat A1 cells", "test": "HIV latency reactivation in J-Lat A1 cells (GFP expression by flow cytometry)", "procedure": "FIG. 1: PEP005 induces reactivation of HIV latency in vitro. J-Lat A1 cells were exposed to different concentrations of PEP005 and virus reactivation was measured by GFP expression using flow cytometry. Cell viability was determined by Live/Dead dye staining. (A) Chemical Structure of PEP005. […] (D) PEP005 potently reactivates latent HIV in cell lines compared with other LRAs. J-Lat A1 cells were treated with 10 nM PEP005, 500 nM SAHA, 2 μM JQ1, 2 μM GSK343, 10 ng/ml TNF, 2 μM Prostratin, or 5 ng/ml PMA for 24 hours and the percentage of GFP expression was evaluated using flow cytometry. *, p<0.05; **, p<0.01.\nFIG. 2: PEP005 synergizes with other latency reversing agents in reactivating latent HIV. (A) J-Lat A1 cells were treated with 5 ng/ml PMA, 6 nM PEP005, 500 nM SAHA, 2 μM JQ1, 2 μM GSK343, or 10 μM Prostratin alone or in combination with 6 nM PEP005 for 24 hours and the percentage of GFP expressing cells was determined using flow cytometry. **, p<0.01; *, p<0.05 compared with control treatment; **, p<0.01; *, p<0.05 compared with PEP005 treatment alone. (B) The U1 cells were treated with 5 ng/ml PMA, 6 nM PEP005, 500 nM SAHA, 2 μM JQ1, or 2 μM GSK343, alone or in combination with 6 nM PEP005 for 24 hours and the HIV transcription was evaluated using RT-qPCR. Numbers indicate fold-increase over the control. **, p<0.01; *, p<0.05 compared with control treatment; **, p<0.01; *, p<0.05 compared with PEP005 treatment alone. […] The Bliss independence model was utilized for calculation of synergy for LRA combinations. Dotted horizontal line signifies pure additive effect (Δfaxy=0). Synergy is defined as Δfaxy>0 while Δfaxy<0 indicates antagonism. Statistical significance was determined using a one tailed ratio t-test comparing predicted and observed drug combination effects. *p<0.05; **p<0.01.\nJ-Lat A1 cells (harboring a single copy of latent HIV LTR and one copy of green fluorescent protein gene under the HIV LTR control) or U1 cells (harboring two latent HIV genomes with defective Tat gene) were cultured in RPMI1640 medium with 10% fetal bovine serum (FBS) and 1% Pen/strep in a 37° C. incubator containing 5% CO2 [24,31]. Both of the cell lines were obtained from NIH AIDS Reagent Program. For reactivation of HIV LTR, cells were treated with PMA (Sigma), JQ1 (Biovision), Prostatin (Sigma), SAHA (Santa Cruz), TNF-α (BD), GSK343 (Sigma), or PEP005 (Tocris Bioscience) for 24 h. HIV reactivation was quantified by GFP expression using flow cytometry and the data were analyzed using FlowJo Software for J-Lat A1 cells, or by quantitative RT-PCR (RT-qPCR) for J-Lat A1 and U1 cells. Cell viability was evaluated using Live/Dead dye (Life Technologies) by flow cytometry. So far, there is not a single in vitro cell culture model available that captures all the features of HIV latency. However, PKC agonists seem to reactivate latent HIV in all the cell culture models of viral latency. Similar to other J-Lat cell lines, the J-Lat A1 clone has been widely used by researchers for HIV latency studies. The T-cell-derived J-Lat A1 cells harbor one copy of a construct containing a Tat and a green fluorescent protein (GFP) gene framed by the 5′ and 3′ HIV LTR [32]. The J-Lat A1 cells also contain the TAR loop located within the R region of HIV LTR (nt +1 to +60), which provides an opportunity for Tat-TAR interactions for the modulation of transcription and transcriptional elongation. […]"}, "HIV-1 IIIB": {"test_system": "HIV-1 IIIB", "test": "HIV-1 infection of primary CD4+ T cells pre-treated with PEP005 (RT-qPCR, p24 ELISA)", "details": "pre-treatment with 12 or 24 nM PEP005; 3 and 5 days after HIV infection", "procedure": "FIG. 12: PEP005 down-modulates the expression of CD4, CCR5 and CXCR4 and inhibits HIV infection of primary CD4+ T cells ex vivo. (A) PEP005 inhibits expression of HIV receptors/co-receptors. […] The expression of CD4, CCR5 and CXCR4 genes was evaluated using RT-qPCR after normalizing for GAPDH. (B) and (C) PEP005 inhibits HIV infection of primary CD4+ T cells ex vivo. Primary CD4+ T cells were pre-treated with 12 or 24 nM PEP005 overnight and infected with the virus. The CD4+ T cells were incubated for 5 days without PEP005. The cells were collected for RT-qPCR targeting the HIV LTR region (B), or supernatants were collected for p24 ELISA (C). *, p<0.05; **, p<0.01.\nPrimary CD4+ T cells were isolated from peripheral blood samples of healthy HIV-negative donors and were pre-treated with PEP005 overnight. The CD4+ T cells were infected with HIV-1 (HIV-1 IIIB expanded in Jurkat T cells, 100 ng p24-gag) through spinoculation as described previously. Following an exposure of 24 hrs to HIV, the cells were washed. Cell supernatants were collected and HIV p24 levels were measured by ELISA. The cells were also collected for RNA extraction and measurement of viral transcripts by RT-qPCR."}, "[2]": {"test_system": "J-Lat A1 cells, U1 cells, primary CD4+ T cells", "test": "Cell proliferation / S-phase progression by BrdU ELISA", "details": "U1 cells or primary CD4+ T cells, 12 nM PEP005, 24 hours", "procedure": "FIG. 7: PEP005 causes minimal cytotoxicity and T cell proliferation. To evaluate the impact of PEP005 on the cell viability, U1 cells (A), J-Lat A1 cells (B) and CD4+ T cells (C) were treated with 12 nM of PEP005 for 24 hours, the cell viability was examined with the MTT assay and the S-phase cell cycle progression was evaluated after BrdU incorporation using BrdU ELISA. 25-50 μM Etoposide or 100-150 μM Doxorubicin (Doxo) served as positive controls for MTT and BrdU assays respectively. Statistical analysis was performed in comparison with controls. **, p<0.01.\nCells were placed in 96-well plates and incubated for 24 or 72 h hrs with compounds. Cell viability was measured using MTT assay (Roche Laboratories), and cell proliferation/S-phase progression was determined by using BrdU ELISA kit (Cell signaling, #1863)."}}, "data": [{"smiles": "C/C=C(/C)C(=O)O[C@H]1C(C)=C[C@]23C(=O)[C@@H](C=C(CO)[C@@H](O)[C@]12O)[C@H]1[C@@H](C[C@H]3C)C1(C)C", "note": "[PEP005, (1aR,2S,5R,5aS,6S,8aS,9R,10aR)-5,5a-Dihydroxy-4-(hydroxymethyl)-1,1,7,9-tetramethyl-11-oxo-1a,2,5,5a,6,9,10,10a-octahydro-1H-2,8a-methanocyclopenta[a]cyclpropa[e][10]annulen-6-yl (2Z)-2-methylbut-2-enoate]", "values": [{"measurement": "concentration at which effect on HIV expression was evident", "setting": "[1]", "value": 2, "unit": "nM"}, {"measurement": "HIV reactivation compared to other compounds known to reactivate HIV", "setting": "[1]; 10 nM PEP005 vs 500 nM SAHA, 2 μM JQ1, 2 μM GSK343, 2 μM Prostratin, 5 ng/ml PMA, 24 h", "value": "more potent than SAHA"}, {"measurement": "increase in the reactivation of HIV latency compared to untreated controls", "setting": "[1]; 20 nM PEP005", "value": 7, "unit": "fold"}, {"measurement": "induction of HIV expression, agent alone", "setting": "[1]; GFP, 24 h, PEP005 2-40 nM, GSK343 2 μM", "value": "dose-dependent manner"}, {"measurement": "HIV gene expression after HIV infection (RT-qPCR, HIV LTR region)", "setting": "HIV-1 IIIB", "value": "dampened HIV gene expression"}, {"measurement": "viral replication after HIV infection (p24 ELISA)", "setting": "HIV-1 IIIB", "value": "decreased the level of viral replication"}, {"measurement": "proportion of cells in S-phase (BrdU)", "setting": "[2]", "value": "did not induce any significant increase"}]}]}
